Where two headings read alike, the source gives them in different places. A value given as a limit tells only on which side of the number the result lay.

Results on 10 compounds are retold here after patent US20250051277A1, “DELIVERY OF THERAPEUTIC ALKALOID COMPOUNDS” (Sensorium Therapeutics, Inc., priority 2021, published 2025).

The conditions of data set [1]: 10 μM.
For data set [2] the following is noted: 10 μM. This is another data set of the same source.
Procedure: 50 μL aliquots of positive controls and test compounds spiked into rat or human plasma (n=2) were added to a pre-warmed plate (37° C.) and shaken at 50 rpm. At each respective time point, the reaction was stopped by adding 500 μL of acetonitrile containing internal standards (100 nM aprozolam, 200 nM caffeine, 100 nM tolbutamide). All samples were vortexed for 10 minutes, followed by centrifugation at 3,220 g for 30 minutes to precipitate proteins. 100 μL of the supernatant is transferred to a new plate. The supernatant will be diluted with ultrapure water according to the LC-MS signal response and peak shape.
The format of data set [3] is physicochemical. Conditions: SGF with pepsin, pH 1.5, 37° C., 0.5 mM.
The format of data set [4] is physicochemical. The following applies: DI water, 25° C., 0.5 mM.

For the compound `COc1ccc([C@@]23CCC(OC(=O)c4c(C)cc(C)cc4C)=C[C@@H]2N(C)CC3)cc1OC` [Compound 356, (3aS,7aS)-3a-(3,4-dimethoxyphenyl)-1-methyl-2,3,3a,4,5,7a-hexahydro-1H-indol-6-yl2,4,6-trimethylbenzoate], the “Prodrug (%) remaining, Rat Plasma” value in data set [1] (0 h) is listed as 100.0%; in data set [1] (10 min), >99%; in data set [1] (0.5 h) it was >99%; in data set [1] (1 h), >99%; in data set [1] (2 h) it was >99%; in data set [1] (4 h) it was 95.8%. Also, the “Prodrug (%) remaining, Human Plasma” value in data set [2] (0 h) was 100.0%; in data set [2] (10 min), >99%; in data set [2] (0.5 h) it was >99%; in data set [2] (1 h), >99%; in data set [2] (2 h), >99%; in data set [2] (4 h) it was >99%.
Regarding `COc1ccc([C@@]23CCC(=NNc4ncccc4C)C[C@@H]2N(C)CC3)cc1OC` [Compound 364, (3aS,7aS)-3a-(3,4-dimethoxyphenyl)-1-methyl-6-(2-(3-methylpyridin-2-yl)hydrazineylidene)octahydro-1H-indole], the “Condition 1 Conversion (%)” value in data set [3] (time 1 min) worked out at 10%; in data set [3] (time 5 min), 100%; in data set [3] (time 30 min) it was 14.91%; in data set [3] (time 1 h) it was 16.09%; in data set [3] (time 4 h) it was 77.07%; in data set [3] (time 24 h) it was 90.5%. In addition, the “Condition 2 Conversion (%)” value in data set [4] (time 1 min) amounted to 0%; in data set [4] (time 5 min), 0%; in data set [4] (time 30 min) it was 0%; in data set [4] (time 1 h), 35.78%; in data set [4] (time 4 h) it was 47%; in data set [4] (time 24 h), 78.89%.
As to `COc1ccc([C@@]23CCC(=NNc4cnccn4)C[C@@H]2N(C)CC3)cc1OC` [Compound 365, N-[[(3aS,7aS)-3a-(3,4-dimethoxyphenyl)-1-methyl-2,3,4,5,7,7a-hexahydroindol-6-ylidene]amino]pyrazin-2-amine], the “Condition 1 Conversion (%)” value in data set [3] (time 1 min) was found to be 0%; in data set [3] (time 5 min), 8.9%; in data set [3] (time 30 min), 47.1%; in data set [3] (time 1 h), 77.4%; in data set [3] (time 4 h), 94.1%; in data set [3] (time 24 h), 100%. For the same compound, the “Condition 2 Conversion (%)” value in data set [4] (time 1 min) worked out at 0%; in data set [4] (time 5 min) it was 0%; in data set [4] (time 30 min) it was 10.11%; in data set [4] (time 1 h) it was 11.33%; in data set [4] (time 4 h) it was 12.6%; in data set [4] (time 24 h), 17.4%.
For the compound `COc1ccc([C@@]23CCC(=NNc4ccc5ccccc5n4)C[C@@H]2N(C)CC3)cc1OC` [Compound 366, N-[[(3aS,7aS)-3a-(3,4-dimethoxyphenyl)-1-methyl-2,3,4,5,7,7a-hexahydroindol-6-ylidene]amino]quinolin-2-amine], the “Condition 1 Conversion (%)” value in data set [3] (time 1 min) came to 0%; in data set [3] (time 5 min), 8.9%; in data set [3] (time 30 min) it was 47.1%; in data set [3] (time 1 h) it was 77.4%; in data set [3] (time 4 h), 94.1%; in data set [3] (time 24 h), 100%. The “Condition 2 Conversion (%)” value in data set [4] (time 1 min) is 0%; in data set [4] (time 5 min), 0%; in data set [4] (time 30 min), 10.11%; in data set [4] (time 1 h), 11.33%; in data set [4] (time 4 h), 12.6%; in data set [4] (time 24 h) it was 17.4%.
Regarding `COc1ccc([C@@]23CCC(=NNCc4cccc(C)c4)C[C@@H]2N(C)CC3)cc1OC` [Compound 367, N-[[(3aS,7aS)-3a-(3,4-dimethoxyphenyl)-1-methyl-2,3,4,5,7,7a-hexahydroindol-6-ylidene]amino]-1-(m-tolyl)methanamine], the “Condition 1 Conversion (%)” value in data set [3] (time 1 min), in data set [3] (time 5 min), in data set [3] (time 30 min), in data set [3] (time 1 h), in data set [3] (time 4 h) and in data set [3] (time 24 h) was 100% in each case. Besides, the “Condition 2 Conversion (%)” value in data set [4] (time 1 min) is 5%; in data set [4] (time 5 min), 8.3%; in data set [4] (time 30 min) it was 11.5%; in data set [4] (time 1 h) it was 11.92%; in data set [4] (time 4 h) it was 13.32%; in data set [4] (time 24 h), 20%.
`COc1ccc([C@@]23CCC(=NNCc4ccccn4)C[C@@H]2N(C)CC3)cc1OC` [Compound 369, (3aS,7aS)-3a-(3,4-dimethoxyphenyl)-1-methyl-6-(2-(pyridin-2-ylmethyl)hydrazineylidene)octahydro-1H-indole]: the “Condition 1 Conversion (%)” value in data set [3] (time 1 min) is 30%; in data set [3] (time 5 min), 100%; in data set [3] (time 30 min), 100%; in data set [3] (time 1 h), 100%; in data set [3] (time 4 h) it was 100%; in data set [3] (time 24 h), 100%. In addition, the “Condition 2 Conversion (%)” value in data set [4] (time 1 min) is reported as 0%; in data set [4] (time 5 min), 0%; in data set [4] (time 30 min) it was 0%; in data set [4] (time 1 h), 0%; in data set [4] (time 4 h), 45%; in data set [4] (time 24 h) it was 50%.
In the case of `COc1ccc([C@@]23CCC(=NNCc4cccnc4)C[C@@H]2N(C)CC3)cc1OC` [Compound 370, N-[[(3aS,7aS)-3a-(3,4-dimethoxyphenyl)-1-methyl-2,3,4,5,7,7a-hexahydroindol-6-ylidene]amino]-1-(3-pyridyl)methanamine], the “Condition 1 Conversion (%)” value in data set [3] (time 1 min) amounted to 20%; in data set [3] (time 5 min) it was 40%; in data set [3] (time 30 min), 100%; in data set [3] (time 1 h), 100%; in data set [3] (time 4 h) it was 100%; in data set [3] (time 24 h), 100%. Further, the “Condition 2 Conversion (%)” value in data set [4] (time 1 min) was found to be 0%; in data set [4] (time 5 min), 0%; in data set [4] (time 30 min), 0%; in data set [4] (time 1 h) it was 10%; in data set [4] (time 4 h), 30%; in data set [4] (time 24 h), 70%.
With `CCCCCCCC(=O)OC1=C[C@@H]2N(C)CC[C@]2(c2ccc(OC)c(OC)c2)CC1` [Compound 395, (3aS,7aS)-3a-(3,4-dimethoxyphenyl)-1-methyl-2,3,3a,4,5,7a-hexahydro-1H-indol-6-yl octanoate], the “Prodrug (%) remaining, Rat Plasma” value in data set [1] (0 h) stood at 100.0%; in data set [1] (10 min) it was 0.3%; in data set [1] (0.5 h) it was 0.1%; in data set [1] (1 h), 0.1%; in data set [1] (2 h), 0.1%; in data set [1] (4 h) it was 0.1%. Moreover, the “Prodrug (%) remaining, Human Plasma” value is 100.0% in data set [2] (0 h); 13.9% in data set [2] (10 min); 3.5% in data set [2] (0.5 h); 1.1% in data set [2] (1 h); 0.3% in data set [2] (2 h); 0.1% in data set [2] (4 h).
For `COc1ccc([C@@]23CCC(OC(=O)CCN)=C[C@@H]2N(C)CC3)cc1OC` [Compound 397, (3aS,7aS)-3a-(3,4-dimethoxyphenyl)-1-methyl-2,3,3a,4,5,7a-hexahydro-1H-indol-6-yl3-aminopropanoate], the “Prodrug (%) remaining, Rat Plasma” value in data set [1] (0 h) was 100.0%; in data set [1] (10 min), 10.5%; in data set [1] (0.5 h), 0.5%; in data set [1] (1 h) it was 0.1%; in data set [1] (2 h), 0.1%; in data set [1] (4 h) it was 0.1%. In addition, the “Prodrug (%) remaining, Human Plasma” value in data set [2] (0 h) was 100.0%; in data set [2] (10 min) it was 2.2%; in data set [2] (0.5 h), 0.5%; in data set [2] (1 h), 0.1%; in data set [2] (2 h), 0.2%; in data set [2] (4 h), 0.0%.
For `CCCC(CC)CC(=O)OC1=C[C@@H]2N(C)CC[C@]2(c2ccc(OC)c(OC)c2)CC1` (stereo partly drawn) [Compound 398, (3aS,7aS)-3a-(3,4-dimethoxyphenyl)-1-methyl-2,3,3a,4,5,7a-hexahydro-1H-indol-6-yl3-ethylhexanoate], the “Prodrug (%) remaining, Rat Plasma” value in data set [1] (0 h) is recorded as 100.0%; in data set [1] (10 min), 2.8%; in data set [1] (0.5 h) it was 0.7%; in data set [1] (1 h), 0.1%; in data set [1] (2 h), 0.0%; in data set [1] (4 h) it was 0.0%. Further, the “Prodrug (%) remaining, Human Plasma” value in data set [2] (0 h) is on record as 100.0%; in data set [2] (10 min), 96.4%; in data set [2] (0.5 h), 85.0%; in data set [2] (1 h) it was 72.4%; in data set [2] (2 h) it was 51.6%; in data set [2] (4 h) it was 25.5%.
